Assay results published in patent publication US20060069132A1, “Azolecarboxamide herbicides” (priority 2004, published 2006).

Legend:
[1] = system: velvetleaf; assay: Test A pre-/postemergence herbicide test; format: in vivo, Abutilon theophrasti
In short: (§1)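 Greenhouse injury scoring (0–100, complete control = 100) at approximately ten days follows simultaneous pre- and postemergence application. Soil received a directed spray after seeding; seedlings of 2–10 cm at the one- to two-leaf stage were sprayed to runoff.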

[2] = system: rice; assay: Test B pre-/postemergence herbicide test; format: in vivo, Oryza sativa; conditions: preemergence
In short: (§2)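 Visual rating, 0 (no effect) to 100 (complete control), versus untreated controls after 13–15 d in greenhouse. Pre- and postemergence applications (postemergence plants 2–18 cm, 1–4 leaves); flooded paddy arm at 2-leaf stage. Compounds in non-phytotoxic solvent plus surfactant.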

[3] = system: small flower umbrella sedge; assay: Test B flooded paddy test; format: in vivo, Cyperus difformis; conditions: 1000 g ai/ha, visual rating, scale 0 to 100 (0 no effect, 100 complete control), 13 to 15 days
In short: (§3)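 Greenhouse test; postemergence application to plants at 1–4 leaves (2–18 cm); paddy species at 2 leaves; evaluated visually vs controls at 13–15 days; scale 0–100 (100 = complete control).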

[4] = system: wild oat; assay: Test B postemergence herbicide test; format: in vivo, Avena fatua; conditions: scale 0 (no effect) to 100 (complete control); for Plant response rating, Oat, Wild: Postemergence, 500 g ai/ha, visual rating after 13 to 15 days; for Oat, Wild plant response rating: postemergence, 125 g ai/ha, visual rating
In short: (§4)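 Scale 0–100: zero equals no visible effect, 100 complete control, judged by eye relative to controls. Timing: 13 to 15 days in greenhouse post-treatment. Growth stage at spraying: two leaves (paddy) or one to four leaves, 2–18 cm (postemergence).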

[5] = system: barnyardgrass; assay: Test B flooded paddy test; format: in vivo, Echinochloa crus-galli; conditions: 1000 g ai/ha, visual rating, scale 0 to 100 (0 no effect, 100 complete control), 13 to 15 days
In short: as §3

[6] = system: barnyardgrass; assay: Test A pre-/postemergence herbicide test; format: in vivo, Echinochloa crus-galli
In short: as §1

[7] = system: morningglory; assay: Test A pre-/postemergence herbicide test; format: in vivo, Ipomoea spp.
In short: as §1

[8] = system: ducksalad; assay: Test B flooded paddy test; format: in vivo, Heteranthera limosa; conditions: 1000 g ai/ha, visual rating, scale 0 to 100 (0 no effect, 100 complete control), 13 to 15 days
In short: as §3

[9] = system: wheat; assay: Test B postemergence herbicide test; format: in vivo, Triticum aestivum; set-up: key to Wheat plant response rating: 0 = no effect, 100 = complete control; conditions: scale 0 (no effect) to 100 (complete control); for Plant response rating, Wheat: Postemergence, 500 g ai/ha, visual rating after 13 to 15 days; for Wheat plant response rating: postemergence, 125 g ai/ha, visual rating
In short: as §4

[10] = system: Surinam grass; assay: Test B pre-/postemergence herbicide test; format: in vivo, Urochloa decumbens; conditions: for Surinam Grass plant response rating: postemergence, visual rating
In short: as §2

[11] = system: lambsquarters; assay: Test B pre-/postemergence herbicide test; format: in vivo, Chenopodium album; conditions: for Lambsquarters plant response rating: postemergence, visual rating
In short: as §2

[12] = system: corn; assay: Test B pre-/postemergence herbicide test; format: in vivo, Zea mays; conditions: for Corn plant response rating: postemergence, visual rating
In short: as §2

[13] = system: rice; assay: Test B flooded paddy test; format: in vivo, Oryza sativa; conditions: 1000 g ai/ha, visual rating, scale 0 to 100 (0 no effect, 100 complete control), 13 to 15 days
In short: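 Read-out: visual comparison with controls, scored 0 to 100, where 100 means complete control and 0 no effect. Formulated chemicals were applied postemergence to plants 2–18 cm tall (1- to 4-leaf), or to flooded-paddy plants at the 2-leaf stage, then held 13 to 15 days under glass.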

[14] = system: large crabgrass; assay: Test B pre-/postemergence herbicide test; format: in vivo, Digitaria sanguinalis; conditions: for Crabgrass, Large plant response rating: postemergence, visual rating
In short: as §2

[15] = system: velvetleaf; assay: Test B pre-/postemergence herbicide test; format: in vivo, Abutilon theophrasti; conditions: for Velvetleaf plant response rating: postemergence, visual rating
In short: as §2

[16] = system: giant foxtail; assay: Test A pre-/postemergence herbicide test; format: in vivo, Setaria faberi
In short: as §1

[17] = system: blackgrass; assay: Test B postemergence herbicide test; format: in vivo, Alopecurus myosuroides; conditions: scale 0 (no effect) to 100 (complete control); for Plant response rating, Blackgrass: Postemergence, 500 g ai/ha, visual rating after 13 to 15 days; for Blackgrass plant response rating: postemergence, 125 g ai/ha, visual rating
In short: as §3

[18] = system: morningglory; assay: Test B pre-/postemergence herbicide test; format: in vivo, Ipomoea coccinea; conditions: for Morningglory plant response rating: postemergence, visual rating
In short: (§5)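 Greenhouse pot assay with simultaneous preemergence (treated seed) and postemergence (2–18 cm seedlings) applications of surfactant-containing, non-phytotoxic solvent formulations. Response scored visually 13–15 days later on a 0–100 scale, 100 meaning complete control.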

[19] = system: cocklebur; assay: Test B pre-/postemergence herbicide test; format: in vivo, Xanthium strumarium; conditions: for Cocklebur plant response rating: postemergence, visual rating
In short: as §5

[20] = system: large crabgrass; assay: Test A pre-/postemergence herbicide test; format: in vivo, Digitaria sanguinalis
In short: as §1

[21] = system: giant foxtail; assay: Test B pre-/postemergence herbicide test; format: in vivo, Setaria faberi; conditions: for Foxtail, Giant plant response rating: postemergence, visual rating
In short: as §2

[22] = system: pigweed; assay: Test B pre-/postemergence herbicide test; format: in vivo, Amaranthus retroflexus; conditions: for Pigweed plant response rating: postemergence, visual rating
In short: as §2

[23] = system: redroot pigweed; assay: Test A pre-/postemergence herbicide test; format: in vivo, Amaranthus retroflexus
In short: as §1

[24] = system: barnyardgrass; assay: Test B pre-/postemergence herbicide test; format: in vivo, Echinochloa crus-galli; conditions: for Barnyardgrass plant response rating: postemergence, visual rating
In short: as §5

[25] = Postemergence, 500 g ai/ha, 0 to 100 scale, 0 no effect, 100 complete control
[26] = Postemergence, 2000 g ai/ha, 0 to 100 scale, 0 no effect, 100 complete control
[27] = Preemergence, 500 g ai/ha, visual rating, 0 to 100 scale (0 no effect, 100 complete control)
[28] = Preemergence, 2000 g ai/ha, visual rating, 0 to 100 scale (0 no effect, 100 complete control)
[29] = 500 g ai/ha, visual rating 0-100, 0 no effect, 100 complete control
[30] = 125 g ai/ha, 0 to 100 scale, 0 is no effect, 100 is complete control
[31] = Preemergence, 2000 g ai/ha, 0 to 100 scale, 0 no effect, 100 complete control
[32] = 500 g ai/ha, visual rating 0-100, 0 no effect, 100 complete control, preemergence
[33] = Postemergence, 500 g ai/ha, visual rating after 13 to 15 days, scale 0 (no effect) to 100 (complete control)
[34] = 125 g ai/ha, scale 0 (no effect) to 100 (complete control)
[35] = preemergence, 125 g ai/ha, 0 to 100 scale, 0 is no effect, 100 is complete control

CCn1nc(C(C)(C)C)cc1C(=O)Nc1cccc(C(=O)OC(C)C)c1C [Compound 92]
0: Velvetleaf plant response rating [1, 25] | Plant response rating, Velvetleaf [1, 26] | Velvetleaf plant response rating [1, 27] | Velvetleaf plant response rating [1, 28] | Plant response rating, Rice [2, 29] | Plant response rating, Rice [2, 30] | Sedge, Umbrella plant response rating [3] | Plant response rating, Oat, Wild [4] | Oat, Wild plant response rating [4] | Barnyardgrass plant response rating [5] | Barnyardgrass plant response rating [6, 25] | Plant response rating, Barnyardgrass [6, 26] | Barnyardgrass plant response rating [6, 27] | Barnyardgrass plant response rating [6, 31] | Morningglory plant response rating [7, 25] | Plant response rating, Morningglory [7, 26] | Morningglory plant response rating [7, 27] | Morningglory plant response rating [7, 31] | Ducksalad plant response rating [8] | Plant response rating, Wheat [9] | Wheat plant response rating [9] | Plant response rating, Surinam Grass [10, 32] | Surinam Grass plant response rating [10, 34] | Plant response rating, Surinam Grass [10, 35] | Plant response rating, Lambsquarters [11, 32] | Plant response rating, Lambsquarters [11, 35] | Plant response rating, Corn [12, 32] | Plant response rating, Corn [12, 35] | Rice plant response rating [13] | Crabgrass, Large plant response rating [14, 34] | Plant response rating, Crabgrass, Large [14, 35] | Plant response rating, Velvetleaf [15, 32] | Plant response rating, Velvetleaf [15, 33] | Velvetleaf plant response rating [15, 34] | Plant response rating, Velvetleaf [15, 35] | Foxtail, Giant plant response rating [16, 25] | Plant response rating, Foxtail, Giant [16, 26] | Foxtail, Giant plant response rating [16, 27] | Foxtail, Giant plant response rating [16, 31] | Plant response rating, Blackgrass [17] | Blackgrass plant response rating [17] | Plant response rating, Morningglory [18, 32] | Plant response rating, Morningglory [18, 33] | Morningglory plant response rating [18, 34] | Plant response rating, Morningglory [18, 35] | Plant response rating, Cocklebur [19, 32] | Plant response rating, Cocklebur [19, 33] | Cocklebur plant response rating [19, 34] | Plant response rating, Cocklebur [19, 35] | Crabgrass, Large plant response rating [20, 25] | Crabgrass, Large plant response rating [20, 27] | Crabgrass, Large plant response rating [20, 31] | Plant response rating, Foxtail, Giant [21, 33] | Foxtail, Giant plant response rating [21, 34] | Plant response rating, Foxtail, Giant [21, 35] | Plant response rating, Pigweed [22, 32] | Pigweed plant response rating [22, 34] | Plant response rating, Pigweed [22, 35] | Pigweed plant response rating [23, 25] | Plant response rating, Pigweed [23, 26] | Pigweed plant response rating [23, 27] | Plant response rating, Barnyardgrass [24, 32] | Plant response rating, Barnyardgrass [24, 33] | Barnyardgrass plant response rating [24, 34] | Plant response rating, Barnyardgrass [24, 35]
35: Pigweed plant response rating [23, 31]
10: Plant response rating, Surinam Grass [10, 33] | Plant response rating, Corn [12, 33] | Corn plant response rating [12, 34] | Plant response rating, Crabgrass, Large [14, 32] | Plant response rating, Crabgrass, Large [14, 33] | Plant response rating, Crabgrass, Large [20, 26] | Plant response rating, Foxtail, Giant [21, 32] | Plant response rating, Pigweed [22, 33]
20: Plant response rating, Lambsquarters [11, 33] | Lambsquarters plant response rating [11, 34]

CCn1nc(C(C)(C)C)cc1C(=O)Nc1cccc(C(=O)OCC2CC2)c1C [Compound 93]
30: Plant response rating, Foxtail, Giant [21, 32] | Plant response rating, Pigweed [22, 33] | Plant response rating, Pigweed [23, 26]
20: Barnyardgrass plant response rating [6, 25] | Morningglory plant response rating [7, 31] | Plant response rating, Corn [12, 33] | Rice plant response rating [13] | Plant response rating, Crabgrass, Large [14, 32] | Pigweed plant response rating [23, 25] | Plant response rating, Barnyardgrass [24, 32]
5: Morningglory plant response rating [7, 25] | Morningglory plant response rating [7, 27]
35: Foxtail, Giant plant response rating [16, 27] | Crabgrass, Large plant response rating [20, 27]
25: Velvetleaf plant response rating [1, 28] | Plant response rating, Barnyardgrass [6, 26] | Barnyardgrass plant response rating [6, 27]
90: Plant response rating, Lambsquarters [11, 33]
60: Lambsquarters plant response rating [11, 34] | Foxtail, Giant plant response rating [16, 31]
70: Sedge, Umbrella plant response rating [3] | Plant response rating, Lambsquarters [11, 32] | Crabgrass, Large plant response rating [20, 31] | Plant response rating, Pigweed [22, 32] | Pigweed plant response rating [23, 31]
10: Velvetleaf plant response rating [1, 25] | Velvetleaf plant response rating [1, 27] | Plant response rating, Oat, Wild [4] | Oat, Wild plant response rating [4] | Plant response rating, Morningglory [7, 26] | Ducksalad plant response rating [8] | Plant response rating, Wheat [9] | Wheat plant response rating [9] | Plant response rating, Surinam Grass [10, 33] | Surinam Grass plant response rating [10, 34] | Plant response rating, Corn [12, 32] | Corn plant response rating [12, 34] | Plant response rating, Corn [12, 35] | Plant response rating, Crabgrass, Large [14, 33] | Crabgrass, Large plant response rating [14, 34] | Plant response rating, Crabgrass, Large [14, 35] | Plant response rating, Velvetleaf [15, 32] | Plant response rating, Velvetleaf [15, 33] | Velvetleaf plant response rating [15, 34] | Foxtail, Giant plant response rating [16, 25] | Plant response rating, Foxtail, Giant [16, 26] | Plant response rating, Blackgrass [17] | Blackgrass plant response rating [17] | Plant response rating, Morningglory [18, 32] | Morningglory plant response rating [18, 34] | Crabgrass, Large plant response rating [20, 25] | Plant response rating, Foxtail, Giant [21, 33] | Foxtail, Giant plant response rating [21, 34] | Plant response rating, Foxtail, Giant [21, 35] | Pigweed plant response rating [22, 34] | Plant response rating, Barnyardgrass [24, 33] | Barnyardgrass plant response rating [24, 34]
15: Plant response rating, Velvetleaf [1, 26] | Plant response rating, Crabgrass, Large [20, 26]
40: Barnyardgrass plant response rating [6, 31] | Plant response rating, Morningglory [18, 33] | Pigweed plant response rating [23, 27]
50: Plant response rating, Cocklebur [19, 33] | Cocklebur plant response rating [19, 34]
0: Plant response rating, Rice [2, 29] | Plant response rating, Rice [2, 30] | Barnyardgrass plant response rating [5] | Plant response rating, Surinam Grass [10, 32] | Plant response rating, Surinam Grass [10, 35] | Plant response rating, Lambsquarters [11, 35] | Plant response rating, Velvetleaf [15, 35] | Plant response rating, Morningglory [18, 35] | Plant response rating, Cocklebur [19, 32] | Plant response rating, Cocklebur [19, 35] | Plant response rating, Pigweed [22, 35] | Plant response rating, Barnyardgrass [24, 35]
